This is an account of results in patent publication US7629438B2, “Group of synthetic antimicrobial peptides” (priority 2002, dated 2009).

Converted amounts (≈) assume the structure as drawn. Where two headings read alike, the source gives them in different places. Ends that are not written are not given here. Peptide text beside a SMILES is read from it.

For assay [1], the system named is Micrococcus lysoleikticus S1.634. Format: cell-based. The procedure: (§1) The minimum inhibitory concentrations (MIC) of the invention peptides were determined using methods described below:
(§2) The strain was recovered, inoculated into sloped medium, and grown overnight at 37° C. Typical clone selected were grown overnight at 37° C. in LB culture, diluted in the same medium to give concentrations of about 10^4-10^5 CFU/ml. The broth dilutions were set up in a 96-well microtiter plate by putting 100 μl of LB-S in every well. Added diluted peptide to every well (10 ul per well), cultured overnight at 37° C. The next day, the plates were scored for growth in the wells, and the MIC determined (In Yup Park et al.; FEBS Letters; 437 (1998) 258-262).

In assay [2] the test system is Staphylococcus aureaus CMCC26003. The assay is classed as cell-based. The procedure:
as §1, §2

Assay [3] concerns Saccharomyces cerevisiae ATCC9736. Format: cell-based. The procedure:
as §1, §2

In assay [4] the test system is Micrococcus lutea CMCC28001. Format: cell-based. The procedure: as §1, §2
The subject of assay [5] is Bacillus pumilus CMCC63202. The assay is classed as cell-based. As for the experimental part:
as §1, §2

In assay [6] the test system is Escherichia coli ATCC8099. Format: cell-based. As for the experimental part:
as §1, §2

Assay [7] deals with Klebsiella pneumoniae CMCC46117. Format: cell-based. The procedure: as §1, §2
The test system of assay [8] is Pseudomonas aeruginosa CMCC10104. The assay is classed as cell-based. As for the experimental part: as §1, §2
Assay [9] relates to Candida albicans ATCC10231. Format: cell-based. The procedure:
as §1, §2

The test system of a further assay is CMCC50094. Description: MIC assay, 96-well microtiter plate. Format: cell-based. The settings on record: B Subacute sclerosing panencephalitis CMCC50094 (G−). As for the experimental part: as §1, §2
A further assay concerns Bacillus subtilis DB430. In words: MIC assay, 96-well microtiter plate. The assay is classed as cell-based. The settings on record: Bacillus subtilis DB430 (G+). As for the experimental part:
as §1, §2

For assay [10], the system named is K562 (human chronic myeloid leukemia cell).
Protocol: (§3) To determine the inhibitory activity of the peptides against tumor cells, a MTT colorimetric assay was performed. Fifty percent inhibitory concentrations of the antimicrobial peptides against tumor cells and normal fibroblasts were determined. Tumor cell K562 (human chronic myeloid leukemia cell), Bcap-37 (human breast cancer cell), QGY-7703 (human hepatocellular carcinoma cell), LOVO colon cancer cell, and mouse NIH-3T3 fibroblast were selected. These cells were provided by the College of Life Sciences, Fudan University. Cells were grown in RPMI1-1640, containing 10% inactivated calf serum. Cells were transferred into the 96-well plate at 2*10^4 cells/well, and 150 μl was added in each well. After the 96-well plate were incubated overnight at 37, in 5% carbon dioxide, 20 μl diluted peptide solution was added to each well, then incubated for 3 days, 20 μl MTT solution was added to each well, and incubated at 37° C. for 4 hours, 40 μl, 002M HCl solution containing 20% SDS was added to each well to solve the purple crystal, and incubated overnight at 37° C. The absorbance at 570 nm was determined.
In assay [11] the test system is Bcap-37 (human breast cancer cell).
Protocol: as §3
For assay [12], the system named is QGY-7703 (human hepatocellular carcinoma cell).
Protocol: as §3
A further assay concerns S. aureus CMCC26003. Format: in vivo, Kunming mouse. To be noted: for Inhibitory rate: S. aureus infected mice. As for the experimental part: The infection model was Staphylococcus aureus infection in the Kunming mouse.
S. aureus CMCC26003 was cultured overnight, with moderate agitation, in Veal Infusion broth (Difco) and diluted in broth containing 5% hog gastric mucin (Difco). Male Kunming mice weighing approximately 20 grams were infected intraperitoneally with 10^6-10^7 viable cells. There were 3 mice in each treatment group. Antimicrobial peptide GK-1 was administered intravenously (in 0.1 ml 5% dextrose for injection), within 10 minutes of infection. Vancomycin was administered subcutaneously.

Protocol for LOVO colon cancer cell: as §3
Protocol for mouse NIH-3T3 fibroblast: as §3

Usually MIC stands for the lowest concentration found to suppress growth. Read a low MIC as greater potency. For the molecule RFKLFKKIPRLLRRGLRKVLK [GK-19], the minimum inhibitory concentration (MIC) in assay [1] turned out to be 4 µg/mL; in [2], 1.0 µg/mL; in [3] it was 12 µg/mL; in [4], 10 µg/mL; in assay [5] it was 10 µg/mL; in [6] it was 2 µg/mL. Further, the minimal inhibitory concentration (MIC) in assay [7] came out at 2 µg/mL; in assay [8], 4 µg/mL; in [9], 16 µg/mL; against CMCC50094, 1 µg/mL; against Bacillus subtilis DB430 it was 2 µg/mL.

With `CC[C@H](C)[C@@H]1NC(=O)CNC(=O)[C@H]([C@@H](C)CC)NC(=O)[C@H](CCCCN)NC(=O)[C@H](CCCCN)NC(=O)[C@H](Cc2ccccc2)NC(=O)[C@H](CC(C)C)NC(=O)[C@H](CCCCN)NC(=O)[C@H](Cc2c[nH]c3ccccc23)NC(=O)[C@H](CCCCN)NC(=O)[C@H](CCCCN)NC(=O)[C@H](CC(C)C)NC(=O)[C@H](CC(C)C)NC(=O)[C@H](CCCCN)NC(=O)[C@H](CCCNC(=N)N)NC(=O)[C@H](CC(C)C)NC(=O)CNC(=O)[C@H](CCCNC(=N)N)NC(=O)[C@H](CCCCN)NC(=O)[C@H](CC(C)C)NC(=O)[C@H](CC(C)C)NC(=O)[C@H](CCCNC(=N)N)NC(=O)CNC1=O` [GK-20] (cyclo(KWKLFKKIGIGRLLKRGLRKLLK); ring closure inferred), the MIC in assay [1] came out at 2 µg/mL (≈ 0.721 µM); in assay [2], 0.8 µg/mL (≈ 0.288 µM); in assay [3], 20 µg/mL (≈ 7.21 µM); in assay [4], 4 µg/mL (≈ 1.44 µM); in assay [5], 6 µg/mL (≈ 2.16 µM); in assay [6] it was 8 µg/mL (≈ 2.88 µM). For the same molecule, the minimum inhibitory concentration (MIC) in assay [7] was found to be 10 µg/mL (≈ 3.6 µM); in assay [8], 10 µg/mL (≈ 3.6 µM); in assay [9], 18 µg/mL (≈ 6.49 µM).

For KWKLFKKIGIGRLLRRLLRRLLR [GK-2], the “inhibitory activity against tumor cells (IC50)” value (shortened to “inhibitory activity”) with LOVO colon cancer cell worked out at 32 µg/mL; in assay [10] it was 56 µg/mL; in assay [11], 47 µg/mL; in [12] it was 44 µg/mL. Further, in the assay on mouse NIH-3T3 fibroblast, the “IC50 against normal fibroblasts” value is more than 100 µg/mL. Also, the minimal inhibitory concentration (MIC) worked out at 0.8 µg/mL in assay [1]; 0.2 µg/mL in assay [2]; 12 µg/mL in [3]; 4 µg/mL in assay [4]; 1 µg/mL in assay [5]; 0.5 µg/mL in assay [6]. The minimum inhibitory concentration (MIC) is 0.8 µg/mL in [7]; 12 µg/mL in assay [8]; 10 µg/mL in assay [9]; 1 µg/mL against CMCC50094; 4 µg/mL in the assay on Bacillus subtilis DB430.

Turning to “RWKLFKKIEKVGRNVRDGLIKAGPAIAVIGQAKSL [cecropin A1, reference compound]”, the minimal inhibitory concentration (MIC) in assay [1] amounted to 50 µg/mL; in assay [2], 16 µg/mL; in assay [3], 50 µg/mL; in assay [4], 30 µg/mL; in [5] it was 50 µg/mL; in [6] it was 20 µg/mL. Besides, the MIC in assay [7] was 16 µg/mL; in assay [8] it was 18 µg/mL; in assay [9], 50 µg/mL; in the assay with CMCC50094, 12 µg/mL; against Bacillus subtilis DB430, 12 µg/mL.

Regarding KWKLFKKIGIGRLLKRGLRKLLK [GK-1], the “inhibitory activity” value in the assay with LOVO colon cancer cell was 35 µg/mL; in assay [10], 45 µg/mL; in assay [11], 52 µg/mL; in assay [12] it was 38 µg/mL. In addition, the “IC50 against normal fibroblasts” value with mouse NIH-3T3 fibroblast was more than 100 µg/mL. Besides, the minimum inhibitory concentration (MIC) in assay [1] amounted to 1.0 µg/mL; in assay [2] it was 0.4 µg/mL; in assay [3], 14 µg/mL; in [4] it was 2 µg/mL; in [5] it was 0.5 µg/mL; in [6], 1 µg/mL. The minimum inhibitory concentration (MIC) in assay [7] is 2 µg/mL; in assay [8] it was 10 µg/mL; in assay [9], 8 µg/mL; against CMCC50094 it was 4 µg/mL; against Bacillus subtilis DB430, 4 µg/mL.

Turning to RWRLFKRIGIGRLLKRGLR [GK-3], the “inhibitory activity” value was 31 µg/mL in the assay with LOVO colon cancer cell, 13 µg/mL in assay [10], 25 µg/mL in [11] and 21 µg/mL in assay [12]. For the same molecule, the “IC50 against normal fibroblasts” value in the assay with mouse NIH-3T3 fibroblast is more than 100 µg/mL. Moreover, the minimal inhibitory concentration (MIC) was determined as 1.2 µg/mL in assay [1]; 0.5 µg/mL in assay [2]; 12 µg/mL in assay [3]; 3 µg/mL in [4]; 0.8 µg/mL in assay [5]; 1.6 µg/mL in [6]. Also, the MIC was 2 µg/mL in assay [7]; 1.8 µg/mL in assay [8]; 11 µg/mL in assay [9]; 6 µg/mL with CMCC50094; 5 µg/mL against Bacillus subtilis DB430.

For the molecule `CN[C@H](CC(C)C)C(=O)N[C@H]1C(=O)N[C@@H](CC(N)=O)C(=O)N[C@H]2C(=O)N[C@H]3C(=O)N[C@H](C(=O)N[C@H](C(=O)O)c4cc(O)cc(O)c4-c4cc3ccc4O)[C@H](O)c3ccc(c(Cl)c3)Oc3cc2cc(c3O[C@@H]2O[C@H](CO)[C@@H](O)[C@H](O)[C@H]2O[C@H]2C[C@](C)(N)[C@H](O)[C@H](C)O2)Oc2ccc(cc2Cl)[C@H]1O` [Vancomycin], the Inhibitory rate with S. aureus CMCC26003 (0.5 mg/kg s.c.) is reported as 0%; with S. aureus CMCC26003 (1.0 mg/kg s.c.) it was 40%; in the assay with S. aureus CMCC26003 (2.0 mg/kg s.c.), 80%; with S. aureus CMCC26003 (4.0 mg/kg s.c.) it was 100%; in the assay on S. aureus CMCC26003 (8.0 mg/kg s.c.) it was 100%. Besides, in the assay with S. aureus CMCC26003 (dosage of 4.5 mg/kg), the “Effectiveness against S. aureus infection (protection of infected mice)” value worked out at 100%.
